Data taken from patent publication US20050214385A1, “Chromium/biotin treatment of dyslipidemia and diet-induced post prandial hyperglycemia” (priority 2001, published 2005).

Columns and labels:
JCR rat [1] = assay: Insulin tolerance test in obese JCR rats; format: in vivo; conditions: FIG. 9
Description: At specified time points during the study, glucose and insulin assessments were made. Specific assessments of carbohydrate metabolism were determined using an intraperitoneal glucose tolerance test and an insulin tolerance test. Animals were studied at 6 and 12 weeks with randomization. The specific metabolic testing was as follows: Following baseline glucose assessment, insulin (5 units per kg body weight) was given intravenously. Repeat glucose assessments occurred at 5, 15, and 30 minute intervals following insulin administration. The rate of glucose disappearance was measured. Again, eight animals in each group at 12 weeks were studied. […] Specifically, CrPic versus control solutions were given in hyperinsulinemic, insulin-resistant, obese JCR rats. The study was initiated on animals at approximately 4 months of age, and animals were treated specifically for three months. […] 9). […] The improvement in insulin sensitivity was associated with a reduction in total. cholesterol levels compared to lean animals (See, e.g., Table 2, and FIGS. 10 & 11). The effect of the combination of chromium and biotin on lipid levels in the animal study is detailed in Table 2. Specifically, the effect of chromium and biotin on cholesterol levels, high density lipid cholesterol (HDL-ch) levels, and triglyceride levels are recorded in Table 2.

JCR rat [2] = assay: Lipid levels in JCR rats (chromium picolinate + biotin animal study); format: in vivo; design: Cholesterol / HDL-ch: unit not given here
Description: In order to test the effects of chromium and biotin, alone and in combination, on insulin sensitivity, a rodent model of “Syndrome X” was employed. Specifically, the JCR rat was utilized as it is a well-established model of obesity and insulin resistance. […] After a baseline phase where accurate weights, body composition, and food intake were assessed, the animals were randomized to either control, CrPic alone, biotin alone, or CrPic/Biotin (See FIG. 5). Animals were weighed weekly and nutrients were given via daily water feeding at a specified dose/kg body weight. A 12-week period of daily treatment of animals was accomplished. […] Specifically, CrPic versus control solutions were given in hyperinsulinemic, insulin-resistant, obese JCR rats. The study was initiated on animals at approximately 4 months of age, and animals were treated specifically for three months. […] 9). […] The improvement in insulin sensitivity was associated with a reduction in total. cholesterol levels compared to lean animals (See, e.g., Table 2, and FIGS. 10 & 11). The effect of the combination of chromium and biotin on lipid levels in the animal study is detailed in Table 2. Specifically, the effect of chromium and biotin on cholesterol levels, high density lipid cholesterol (HDL-ch) levels, and triglyceride levels are recorded in Table 2.

[3] = Month 0, listed as High Chromium
[4] = Month 0, listed as Low Chromium
[5] = Month 1, listed as High Chromium
[6] = Month 1, listed as Low Chromium
[7] = Month 2, listed as High Chromium
[8] = Month 2, listed as Low Chromium
[9] = Month 3, listed as High Chromium
[10] = Month 3, listed as Low Chromium

Substance: chromium picolinate [CrPic]
- Insulin sensitivity, insulin tolerance test (JCR rat [1]): significantly improved
- Cholesterol (JCR rat [2]; [3]): 110
- HDL-ch (JCR rat [2]; [3]): 43.1
- Triglyceride (JCR rat [2]; [3]): 302 mg/dL
- Cholesterol (JCR rat [2]; [4]): 109
- HDL-ch (JCR rat [2]; [4]): 45.9
- Triglyceride (JCR rat [2]; [4]): 319 mg/dL
- Cholesterol (JCR rat [2]; [5]): 112
- HDL-ch (JCR rat [2]; [5]): 43.2
- Triglyceride (JCR rat [2]; [5]): 283 mg/dL
- Cholesterol (JCR rat [2]; [6]): 93
- HDL-ch (JCR rat [2]; [6]): 38.6
- Triglyceride (JCR rat [2]; [6]): 267 mg/dL
- Cholesterol (JCR rat [2]; [7]): 120
- HDL-ch (JCR rat [2]; [7]): 51.5
- Triglyceride (JCR rat [2]; [7]): 221 mg/dL
- Cholesterol (JCR rat [2]; [8]): 130
- HDL-ch (JCR rat [2]; [8]): 43.4
- Triglyceride (JCR rat [2]; [8]): 256 mg/dL
- Cholesterol (JCR rat [2]; [9]): 122
- HDL-ch (JCR rat [2]; [9]): 48.1
- Triglyceride (JCR rat [2]; [9]): 174 mg/dL
- Cholesterol (JCR rat [2]; [10]): 137
- HDL-ch (JCR rat [2]; [10]): 45.9
- Triglyceride (JCR rat [2]; [10]): 242 mg/dL
- total cholesterol levels (JCR rat [2]; obese JCR rats, FIGS. 10 & 11): reduction
